Here are results for 20 compounds from patent publication US20240059698A1 (Accutar Biotechnology Inc., priority 2022, published 2024).

Molecules are shown by their SMILES. Some results are limits rather than exact numbers.

For assay [1], the system named is HCC827-SVD cells (human EGFR exon 20 insertion mutant D770_N771insSVD). As to the kind of experiment: Cell growth inhibition (CellTiter-Glo), HCC827-SVD. The assay is classed as cell-based. To be noted: 72 h, 3 days. The protocol: (§1) Generation of HCC827-SVD, HCC827-ASV, and HCC827-YVMA cell lines. The HCC827-SVD cell line was generated by first transducing HCC827 cells (ATCC) with lentiviral particles expressing codon-optimized human EGFR exon 20 insertion mutant D770_N771insSVD, and then selecting under 5 µg/mL puromycin treatment for a week. The resulting cells were further transduced with lentiviral particles carrying EGFR sgRNA and CAS9 to knockout the endogenous alleles of EGER and then selected under 500 µg/mL hygromycin B treatment for two weeks. The limiting dilution approach was used to subsequently generate the single clone of the HCC827-SVD stable cell line. Endogenous EGFR knockout was confirmed by Sanger sequencing of cell genomic DNA, and expression of exogenous mutant EGFR was verified by Western blot analysis.
(§2) 2. Cell Growth Inhibition for HCC827, HCC827-SVD, HCC827-ASV, HCC827-YVMA, and A431.
(§3) HCC827(ATCC), HCC827-SVD, HCC827-ASV, and HCC827-YVMA cells were seeded in 96-well plates at 5000 cells/well in 90 μL of RPMI growth medium containing 10% FBS and 1% Penicillin Streptomycin. A431 (ATCC) cells were seeded in 96-well plates at 5000 cells/well in 90 μL of DMEM growth medium containing 10% FBS and 1% Penicillin Streptomycin. Cells were incubated at 37° C. overnight and then administered with 10 μL 10× test compounds prepared in the growth medium at various concentrations. After administration of the compounds, cells were incubated at 37° C. for 3 days. Before the CellTiter-Glo assay, the plates were equilibrated at room temperature for approximately 30 minutes. 100 ul of CellTiter-Glo reagent (Promega) was added to each well. The plates were then incubated at room temperature for 10 minutes and luminescence was recorded by the EnSight® multimode plate reader (PerkinElmer). Table 7 listed selected compounds in cellular growth assay.

Assay [2] has as its system HCC827-YVMA cells (human ERBB2 exon20 insertion mutant A775_G776ins YVMA). The experiment in a line: Cell growth inhibition (CellTiter-Glo), HCC827-YVMA. It is filed as cell-based. Conditions: 72 h, HCC827-YVMA cells, 3 days, CellTiter-Glo, read-out: Cell growth inhibition, GI50 (nM) HCC827-YVMA. The protocol: as §1
HCC827-ASV and HCC827-YVMA cell lines were generated in a similar approach as HCC827-SVD, except that HCC827 cells (ATCC) were first transduced with lentiviral particles expressing codon-optimized human EGFR exon 20 insertion mutant V769_D770insASV and human ERBB2 exon20 insertion mutant A775_G776ins YVMA, respectively.
as §2, §3

`C=CC(=O)N1CCC(c2c[nH]c3ncnc(Nc4ccc(OCc5ncccc5Cl)c(Cl)c4)c23)CC1` [Compound 35, 1-(4-(4-((3-chloro-4-((3-chloropyridin-2-yl)methoxy)phenyl)amino)-7H-pyrrolo[2,3-d]pyrimidin-5-yl)piperidin-1-yl)prop-2-en-1-one]: the GI50 in assay [1] and in assay [2] was < 50 nM in each case.
Turning to `C=CC(=O)N1CCC(c2c[nH]c3ncnc(Nc4ccc(OCc5cccc(F)n5)c(Cl)c4)c23)CC1` [Compound 36, 1-(4-(4-((3-chloro-4-((6-fluoropyridin-2-yl)methoxy)phenyl)amino)-7H-pyrrolo[2,3-d]pyrimidin-5-yl)piperidin-1-yl)prop-2-en-1-one], the 50% growth inhibitory concentration (GI50) in assay [1] and in assay [2] was < 50 nM throughout.
As to `C=CC(=O)N1CCC(c2c[nH]c3ncnc(Nc4ccc(OCc5ncccc5F)c(Cl)c4)c23)CC1` [Compound 37, 1-(4-(4-((3-chloro-4-((3-fluoropyridin-2-yl)methoxy)phenyl)amino)-7H-pyrrolo[2,3-d]pyrimidin-5-yl)piperidin-1-yl)prop-2-en-1-one], the GI50 in assay [1] and in assay [2] was < 50 nM each time.
Regarding `C=CC(=O)N1CCC(c2c[nH]c3ncnc(Nc4ccc(Oc5ccnc(NC(=O)C6CCCC6)c5)c(Cl)c4)c23)CC1` [Compound 38, N-[4-[2-chloro-4-[[5-(1-prop-2-enoyl-4-piperidyl)-7H-pyrrolo[2,3-d]pyrimidin-4-yl]amino]phenoxy]-2-pyridyl]cyclopentanecarboxamide], the concentration for 50% growth inhibition (GI50) in assay [1] and in assay [2] was 50 to 200 nM each time.
Consider `C=CC(=O)N1CCC(c2c[nH]c3ncnc(Nc4ccc(OCc5ccccn5)c(Br)c4)c23)CC1` [Compound 39, 1-(4-(4-((3-bromo-4-(pyridin-2-ylmethoxy)phenyl)amino)-7H-pyrrolo[2,3-d]pyrimidin-5-yl)piperidin-1-yl)prop-2-en-1-one], for which the GI50 in assay [1] and in assay [2] was < 50 nM in each case.
For `C=CC(=O)N1CCC(c2c[nH]c3ncnc(Nc4ccc(Oc5ccnc(Nc6ccccn6)c5)c(Cl)c4F)c23)CC1` [Compound 40, 1-(4-(4-((3-chloro-2-fluoro-4-((2-(pyridin-2-ylamino)pyridin-4-yl)oxy)phenyl)amino)-7H-pyrrolo[2,3-d]pyrimidin-5-yl)piperidin-1-yl)prop-2-en-1-one], the 50% growth inhibitory concentration (GI50) in assay [1] and in assay [2] was < 50 nM each time.
In the case of `C=CC(=O)N1CCC(c2c[nH]c3ncnc(Nc4ccc(Oc5ccn(-c6ccc7cc[nH]c7n6)n5)cc4F)c23)CC1` [Compound 41, 1-(4-(4-((4-((1-(1H-pyrrolo[2,3-b]pyridin-6-yl)-1H-pyrazol-3-yl)oxy)-2-fluorophenyl)amino)-7H-pyrrolo[2,3-d]pyrimidin-5-yl)piperidin-1-yl)prop-2-en-1-one], the GI50 in assay [1] lay in the range of 50 to 200 nM; in assay [2], 200 to 1000 nM.
`C=CC(=O)N1CCC(c2c[nH]c3ncnc(Nc4ccc(Oc5ccnc(NCc6ccccn6)c5)cc4F)c23)CC1` [Compound 42, 1-(4-(4-((2-fluoro-4-((2-((pyridin-2-ylmethyl)amino)pyridin-4-yl)oxy)phenyl)amino)-7H-pyrrolo[2,3-d]pyrimidin-5-yl)piperidin-1-yl)prop-2-en-1-one]: the GI50 in assay [1] and in assay [2] was 200 to 1000 nM throughout.
Consider `C=CC(=O)N1CCC(c2c[nH]c3ncnc(Nc4ccc(Oc5ccnc(N6CCC(C(F)(F)F)C6)c5)c(Cl)c4)c23)CC1` (stereo not drawn) [Compound 43, 1-[4-[4-[3-chloro-4-[[2-[3-(trifluoromethyl)pyrrolidin-1-yl]-4-pyridyl]oxy]anilino]-7H-pyrrolo[2,3-d]pyrimidin-5-yl]-1-piperidyl]prop-2-en-1-one], for which the GI50 in assay [1] and in assay [2] was 50 to 200 nM throughout.
`C=CC(=O)N1CCC(c2c[nH]c3ncnc(Nc4ccc(Oc5ccnc(Nc6ccccn6)n5)cc4F)c23)CC1` [Compound 44, 1-(4-(4-((2-fluoro-4-((2-(pyridin-2-ylamino)pyrimidin-4-yl)oxy)phenyl)amino)-7H-pyrrolo[2,3-d]pyrimidin-5-yl)piperidin-1-yl)prop-2-en-1-one]: the 50% growth inhibitory concentration (GI50) in assay [1] and in assay [2] was 200 to 1000 nM in each case.
`C=CC(=O)N1CCC(c2c[nH]c3ncnc(Nc4ccc(Oc5ccnc(NCC(C)C)n5)cc4F)c23)CC1` [Compound 45, 1-(4-(4-((2-fluoro-4-((2-(isoButylamino)pyrimidin-4-yl)oxy)phenyl)amino)-7H-pyrrolo[2,3-d]pyrimidin-5-yl)piperidin-1-yl)prop-2-en-1-one]: the GI50 in assay [1] and in assay [2] was 50 to 200 nM throughout.
Consider `C=CC(=O)N1CCC(c2c[nH]c3ncnc(Nc4ccc(Oc5ccnc6cc[nH]c56)c(Cl)c4)c23)CC1` [Compound 46, 1-(4-(4-((4-((1H-pyrrolo[3,2-b]pyridin-7-yl)oxy)-3-chlorophenyl)amino)-7H-pyrrolo[2,3-d]pyrimidin-5-yl)piperidin-1-yl)prop-2-en-1-one], for which the GI50 in assay [1] and in assay [2] was 50 to 200 nM each time.
As for `C=CC(=O)N1CCC(c2c[nH]c3ncnc(Nc4ccc(OCc5cnc(Cn6cncn6)nc5)c(Cl)c4)c23)CC1` [Compound 47, 1-(4-(4-((4-((2-((1H-1,2,4-triazol-1-yl)methyl)pyrimidin-5-yl)methoxy)-3-chlorophenyl)amino)-7H-pyrrolo[2,3-d]pyrimidin-5-yl)piperidin-1-yl)prop-2-en-1-one], the GI50 is < 50 nM in assay [1] and 50 to 200 nM in assay [2].
The like results for `C=CC(=O)N1CCC(c2c[nH]c3ncnc(Nc4ccc(Oc5ccnc(-c6ccn(C)n6)c5)c(Cl)c4)c23)CC1` [Compound 48, 1-(4-(4-((3-chloro-4-((2-(1-methyl-1H-pyrazol-3-yl)pyridin-4-yl)oxy)phenyl)amino)-7H-pyrrolo[2,3-d]pyrimidin-5-yl)piperidin-1-yl)prop-2-en-1-one] were, in that order, 50 to 200 nM and 50 to 200 nM.
Taken in the same sequence, the figures for `C=CC(=O)N1CCC(c2c[nH]c3ncnc(Nc4ccc(Oc5ccnc(Nc6ccccn6)c5)c(Cl)c4)c23)CC1` [Compound 49, 1-(4-(4-((3-chloro-4-((2-(pyridin-2-ylamino)pyridin-4-yl)oxy)phenyl)amino)-7H-pyrrolo[2,3-d]pyrimidin-5-yl)piperidin-1-yl)prop-2-en-1-one] were 50 to 200 nM and < 50 nM.
Regarding `C=CC(=O)N1CCC(c2c[nH]c3ncnc(Nc4ccc(Oc5ccnc(N6CCC(C(F)(F)F)C6)n5)cc4F)c23)CC1` (stereo not drawn) [Compound 50, 1-(4-(4-((2-fluoro-4-((2-(3-(trifluoromethyl)pyrrolidin-1-yl)pyrimidin-4-yl)oxy)phenyl)amino)-7H-pyrrolo[2,3-d]pyrimidin-5-yl)piperidin-1-yl)prop-2-en-1-one], the concentration for 50% growth inhibition (GI50) lay within 200 to 1000 nM in assay [1] and 50 to 200 nM in assay [2].
In the case of `C=CC(=O)N1CCC(c2c[nH]c3ncnc(Nc4ccc(Oc5ccnc(C6CCC6)c5)cc4F)c23)CC1` [Compound 51, 1-(4-(4-((4-((2-cycloButylpyridin-4-yl)oxy)-2-fluorophenyl)amino)-7H-pyrrolo[2,3-d]pyrimidin-5-yl)piperidin-1-yl)prop-2-en-1-one], the GI50 in assay [1] and in assay [2] was 200 to 1000 nM in each case.
`C=CC(=O)N1CCC(c2c[nH]c3ncnc(Nc4ccc(OCc5nncs5)c(Cl)c4)c23)CC1` [Compound 52, 1-(4-(4-((4-((1,3,4-thiadiazol-2-yl)methoxy)-3-chlorophenyl)amino)-7H-pyrrolo[2,3-d]pyrimidin-5-yl)piperidin-1-yl)prop-2-en-1-one]: the GI50 in assay [1] and in assay [2] was < 50 nM each time.
In the case of `C=CC(=O)N1CCC(c2c[nH]c3ncnc(Nc4ccc(Oc5ccnc(-c6cccc(C(F)(F)F)c6)c5)cc4F)c23)CC1` [Compound 53, 1-(4-(4-((2-fluoro-4-((2-(3-(trifluoromethyl)phenyl)pyridin-4-yl)oxy)phenyl)amino)-7H-pyrrolo[2,3-d]pyrimidin-5-yl)piperidin-1-yl)prop-2-en-1-one], the GI50 in assay [1] and in assay [2] was 200 to 1000 nM each time.
For the compound `C=CC(=O)N1CCC(c2c[nH]c3ncnc(Nc4ccc(Oc5cccc(C(F)(F)F)c5)c(Cl)c4)c23)CC1` [Compound 225, 1-[4-[4-[3-chloro-4-[3-(trifluoromethyl)phenoxy]anilino]-7H-pyrrolo[2,3-d]pyrimidin-5-yl]-1-piperidyl]prop-2-en-1-one], the concentration for 50% growth inhibition (GI50) in assay [2] is < 50 nM.
